Measured values as given in patent US20260167638A1, “PHARMACEUTICAL COMPOUND, SALTS THEREOF, FORMULATIONS THEREOF, AND METHODS OF MAKING AND USING SAME” (Genentech, Inc., priority 2018, published 2026).
“And” between values parts separate entries of the source, which are not always exact repeats. Identical values can stand only once. Like-named read-outs stand apart in the source and are kept apart here.

What was measured:
[1] = Approximate solubility in MeOH/MTBE at room temperature; assay type: physicochemical; details: organic solvent or mixture
Procedure: The approximate solubility of mono-tosylate Type A was measured in MeOH/MTBE at room temperature. […] To achieve appropriate volumetric efficiency and yield, the starting concentration in MeOH was 250 mg/mL and the final ratio of the anti-solvent crystallization process in MeOH/MTBE (v/v) was 1:3.

[2] = Example 20 crossover pharmacokinetics of two oral tablet formulations in dogs under fed conditions; assay type: in vivo, beagle dogs; design: Plasma concentration of Compound I at 24 hours / Plasma concentration of Compound I at 36 hours / Plasma concentration of Compound I at 0.5 hours / Plasma concentration of Compound I at 1 hour / Plasma concentration of Compound I at 2 hours: unit: ng/mL; details: 200 mg tablet PO
Procedure: Pharmacokinetics parameters of formulations of Compound I and its salts in dogs were determined by orally administering a test formulation tablet at 200 mg of active (Compound I or salt) per dog.
Blood samples were taken at various times after administration, plasma prepared, and submitted to analysis for parent drug using a qualified LC-MS-MS assay. Pharmacokinetics parameters derived from the plasma analytical data were determined using non-compartmental analysis.
Pharmacokinetics of Compound I were determined in pentagastrin-pretreated male beagle dogs following a single oral (PO) administration at 200 mg/tablet/dog in a 2-phase crossover study with a washout period of at least 7 days in between each phase. Six male, non-naive, purebred beagle dogs were used in each phase of the 2-phase crossover study. All dogs were pretreated with pentagastrin (6 μg/kg intramuscular administrations) approximately 30 minutes before test article administration.
Two tablet formulations (nanosuspension and mono-tosylate salt, as described above) of test article were assessed. Phase 1 animals were given tablets containing Compound I nanosuspension. Phase 2 animals were given tablets containing Compound I mono-tosylate salt. Animals in both phases were fasted overnight through approximately 4 hours postdose, and received a 100-mL volume of homogenized Food and Drug Administration (FDA) high fat diet by oral gavage at approximately 30 minutes prior to test article administration, followed by a 7 to 10-mL flush with water. Blood samples were collected pre-dose and at 0.25. 0.5, 1. 2. 4. 8, 24, 36, and 48 hours after the oral dose. Plasma was harvested, and the concentration of Compound I in each plasma sample was determined by an LC/MS/MS assay. The assay lower limit of quantitation was 20 ng/mL for Compound I.
Mean Compound I concentrations measured in plasma were used to construct semi-logarithmic plasma concentration-time curves (FIG. 14). Pharmacokinetic analysis was performed using non-compartmental methods.

[3] = Dissolution and precipitation in pH 6.5 phosphate buffer at 37° C. containing HPMC; assay type: physicochemical
Description: The inclusion of HPMC in the tablet of Example 16 was to maintain the supersaturation of Compound I API after its mono-tosylate salt dissolves. […]

[4] = Example 20, fed dogs (high fat diet), individual subjects, mono-tosylate salt
[5] = Example 20, fed dogs, individual subjects, LLOQ 20 ng/mL, mono-tosylate salt
[6] = male, beagle, dog, plasma, po, 200 mg, Example 20, fed dogs (high fat diet), mean

solubility ([1]; MeOH/MTBE (v/v, 1:2), read-out: approximate solubility in MeOH/MTBE (v/v, 1:2)): 9.3 to 18.6 mg/mL
solubility ([1]; MeOH/MTBE (v/v, 1:3), read-out: approximate solubility in MeOH/MTBE (v/v, 1:3)): < 5.4 mg/mL
solubility ([1]; methanol, read-out: approximate solubility in MeOH): 264 to 348 mg/mL
Plasma concentration of Compound I at 48 hours ([2]; Example 20, fed dogs, individual subjects, LLOQ 20 ng/mL): BLQ
Plasma concentration of Compound I at 0.25 hours [2, 5]: BLQ (4×) and 381 and 41.0
Plasma concentration of Compound I at 48 hours ([2]; Example 20, fed dogs, mean, LLOQ 20 ng/mL): BLQ
tmax ([2]; male, beagle, dog, plasma, po, 200 mg, Example 20, fed dogs (high fat diet), individual subjects): 4 h
AUC(0-t) [2, 6]: 48800 ng·h/mL
tmax [2, 6]: 3 h
AUC ([2]; male, beagle, dog, plasma, po, 200 mg, Example 20, fed dogs (high fat diet), mean, read-out: AUC0-rt): 50900 ng·h/mL
Cmax ([2]; male, beagle, dog, plasma, po, 200 mg, Example 20, fed dogs (high fat diet), mean, read-out: Cmax): 5430 ng/mL
concentration at 0.25 h ([2]; male, beagle, dog, plasma, po, 200 mg/tablet/dog, Example 20, fed dogs, mean, LLOQ 20 ng/mL, read-out: Plasma concentration of Compound I at 0.25 hours): 70.3 ng/mL
concentration at 0.5 h ([2]; male, beagle, dog, plasma, po, 200 mg/tablet/dog, Example 20, fed dogs, mean, LLOQ 20 ng/mL, read-out: Plasma concentration of Compound I at 0.5 hours): 717 ng/mL
concentration at 1 h ([2]; male, beagle, dog, plasma, po, 200 mg/tablet/dog, Example 20, fed dogs, mean, LLOQ 20 ng/mL, read-out: Plasma concentration of Compound I at 1 hour): 2190 ng/mL
concentration at 2 h ([2]; male, beagle, dog, plasma, po, 200 mg/tablet/dog, Example 20, fed dogs, mean, LLOQ 20 ng/mL, read-out: Plasma concentration of Compound I at 2 hours): 4580 ng/mL
concentration at 4 h ([2]; male, beagle, dog, plasma, po, 200 mg/tablet/dog, Example 20, fed dogs, mean, LLOQ 20 ng/mL, read-out: Plasma concentration of Compound I at 4 hours): 4960 ng/mL
concentration at 8 h ([2]; male, beagle, dog, plasma, po, 200 mg/tablet/dog, Example 20, fed dogs, mean, LLOQ 20 ng/mL, read-out: Plasma concentration of Compound I at 8 hours): 2460 ng/mL
concentration at 24 h ([2]; male, beagle, dog, plasma, po, 200 mg/tablet/dog, Example 20, fed dogs, mean, LLOQ 20 ng/mL, read-out: Plasma concentration of Compound I at 24 hours): 847 ng/mL
concentration at 36 h ([2]; male, beagle, dog, plasma, po, 200 mg/tablet/dog, Example 20, fed dogs, mean, LLOQ 20 ng/mL, read-out: Plasma concentration of Compound I at 36 hours): 79.7 ng/mL
Compound I concentration maintained ([3]; HPMC 5 μg/mL): 160 µg/mL
API concentration after dissolution ([3]; absence of HPMC, in 10 minutes): 80 µg/mL
SMILES: Cc1ccc(S(=O)(=O)O)cc1.Cn1cc(-c2cn(-c3ccc(OC(F)(F)F)cc3)c(=O)c3ncn(C)c23)cn1 [mono-tosylate, 1-methyl-7-(1-methyl-1H-pyrazol-4-yl)-5-(4-(trifluoromethoxy)phenyl)-1,5-dihydro-4H-imidazo[4,5-c]pyridin-4-one, mono-tosylate salt]
AUC0-last [2, 4]: 59000 ng·h/mL and 75300 ng·h/mL and 68500 ng·h/mL and 26200 ng·h/mL and 16000 ng·h/mL and 47500 ng·h/mL
AUC0-rt [2, 4]: 59700 ng·h/mL and 70100 ng·h/mL and 26200 ng·h/mL and 47700 ng·h/mL
Cmax [2, 4]: 5340 ng/mL and 8590 ng/mL and 5160 ng/mL and 4930 ng/mL and 3490 ng/mL and 5080 ng/mL
Plasma concentration of Compound I at 1 hour [2, 5]: 107 and 6070 and 2340 and 3330 and 1200 and 97.9
Plasma concentration of Compound I at 2 hours [2, 5]: 2010 and 8270 and 5160 and 4930 and 2020 and 5080
Plasma concentration of Compound I at 4 hours [2, 5]: 5340 and 8590 and 4020 and 3770 and 3490 and 4530
Plasma concentration of Compound I at 8 hours [2, 5]: 3240 and 4900 and 1480 and 1020 and 1200 and 2920
maintenance of Compound I supersaturation ([3]; HPMC 1 or 2 μg/mL): did not substantially maintain Compound I supersaturation
